In patent US20140370541A1, “CELL CULTURE LIQUID/GAS-PHASE CHAMBER DEVICES AND RELATED METHODS, AND EXEMPLARY USE FOR MEASURING ACCUMULATION OF GAS-PHASE NITRIC OXIDE IN DIFFERENTIATED CULTURES OF NORMAL AND CYSTIC FIBROSIS AIRWAY EPITHELIAL CELLS” (UNIVERSITY OF NORTH CAROLINA, priority 2012, published 2014):
Values joined by “and” are separate entries in the source; they are usually repeats but may differ in a detail not shown here. Identical values can stand only once. “Also recorded” adds a separate entry of the source.

Tests used:
[1] = test system: control human bronchial epithelial (HBE) cells; experiment: Gas-phase NO (gNO) accumulation above control HBE cultures in gas-tight liquid/gas-phase chamber; format: cell-based; conditions: for gas-phase level of NO: differentiated HBE, IFN-γ
Protocol: (§1) In preliminary studies, attempts were made to measure gNO release from well-differentiated cultures of HBE cells under the conditions described by Suresh et al. (21). Because some difficulties were encountered in obtaining a reproducible, gas-tight seal, both around the holes drilled in the plastic for the fittings and around the lid of the dish using parafilm, the procedure was modified in the following manner. First, 120 ml Teflon® jars (Savillex) were fitted with silicone O-rings to create a leak-proof seal. Two holes were drilled in the lid and fitted with stainless steel luer-lock adapters that were fastened tightly using stainless steel washers and nuts. The luer-lock adapters were fitted with two 3-way plastic stop-cocks to allow connections to be made to the Sievers 270B NO or other analyzers and room or zero air. Manufactured Teflon partition was inserted into the jar to hold the transwells containing cells and to separate the liquid compartment from the headspace.
(§2) For measurement of gNO production by HBE cultures, ALI media was added to each chamber. The apical surface of each culture was washed with 1 ml of PBS for 5 minutes at 37° C. to remove mucus and cell debris. Unless otherwise specified, 50 μl of PBS was added to the apical surface of the culture to provide a thin layer of ASL and allow cilia to beat freely. Three, 12 mm cultures were placed in each chamber, and the chambers were placed in a 37° C./5% CO2 incubator with the lids removed for 5 minutes to allow equilibration with incubator air. The lids were then replaced and tightened with both stop-cocks fully closed. After the appropriate incubation time, the chambers were removed from the incubator and connected to an NO analyzer. The stop-cocks were simultaneously opened to allow room air into the chamber while sample was being withdrawn into the analyzer for measurement. For these studies, NO was measured using a Sievers 280B nitric oxide analyzer with a flow rate of 40 ml/min. For the measurements of gNO production by nasal cultures the flow rate was increased to 500 ml/min. The analyzer was routinely calibrated using NO free air and nitric oxide standards, and zeroed before each experimental run. The level of NO was determined in room air and was usually <5 ppb. The analog output from the NO analyzer was directed into a MACLAB analog-digital converter and computer for data analyses and archiving. All NO measurements are reported as the peak concentration obtained during the sampling period, usually within the first 15 seconds.
(§3) Ciliated cells first become visible ˜14 days after establishment of an air-liquid interface, and the number of ciliated cells continues to increase with time so that by ˜31 days, the cultures typically consist of a multi-layered, pseudo-stratified, heavily ciliated epithelium, as illustrated in FIG. 1B. FIG. 1B is a micrograph 12 of differentiated cultures 14 consisting of a pseudo-stratified epithelium 16 stained with hematoxylin and eosin with abundant ciliated cells at the apical surface 18. To measure gas-phase NO (gNO) production, the apical surface of the cultures were washed, a small volume of PBS (50 ul) was added to wet the surface, and the cultures were incubated overnight (19-20 hours) in a gas-tight, NO inert, cell culture liquid/gas-phase chamber developed for the measurement of gNO (schematically shown in FIG. 2A).

[2] = test system: CF human bronchial epithelial (HBE) cells; experiment: Gas-phase NO (gNO) accumulation above CF HBE cultures in gas-tight liquid/gas-phase chamber; format: cell-based
Protocol: as §1, §2
as §3, with “2A). […]” for “2A).”

HBE cells = experiment: Total nitrate/nitrite (NOx) in basal media; format: cell-based, human; conditions: cultures treated with IFN-γ
Protocol: Measurements of total nitrite/nitrate in apical and basolateral media samples were performed using the Parameter kit (R&D Systems, Minneapolis, Minn.) according to the manufacturer's instructions. Briefly, a 0.5 ml sample of media was obtained from the basolateral chamber at the conclusion of the experiment and frozen at −20° C. until analyzed. Each sample was assayed in duplicate and compared to a standard curve, which was prepared in the same ALI media used to culture the cells.
Nitric oxide present in biological fluids rapidly reacts with other molecules to produce a variety of products. In aqueous solutions, nitrite and nitrate are two of the major metabolites of NO reaction. To determine if the level of NO products in the basal media increased in a similar manner as the levels of gNO, the total amount of nitrate/nitrite (NOx) in a subset of experiments using the Griese reaction was measured. As expected, the level of nitrate/nitrite in the media was higher in cultures treated with IFN-γ than in untreated cultures, averaging 9.3+/−3.1 μM in treated cultures compared to 2.0+/−0.5 μM in untreated cultures (p=0.005; donors=7, 3). The level of NOx in the media increased proportionally to the level of gNO, with a correlation coefficient of 0.74 (y=2.33x+0.28; R^2=0.74), as shown in the chart 92 in FIG. 9. […]

[3] = test system: iNOS mRNA in control (Normal) HBE cells; experiment: RT-PCR of NOS isoform RNA in control HBE cultures; format: cell-based, human
Protocol: To examine the effect of an inflammatory cytokine on NO production, well-differentiated cultures of normal HBE cells were treated with different concentrations of interferon-gamma (IFN-γ), a potent inducer of iNOS (7-10). Total RNA was isolated and RT-PCR was used to qualitatively assess the level of the NOS isoforms. […] To examine the effect of IFN-γ on gNO, well-differentiated cultures (mean age 128 days) of control HBE cells were treated with interferon-gamma (IFN-γ) overnight. Treatment with 100 ng/ml of IFN-γ increased the level of accumulated NO>50-fold (see FIG. 5), averaging 576+/−200 ppb (n=22; 8 donors). The IFN-γ induced increase in NO was highly significant (p=6.5×10E-6). Increased levels of iNOS RNA and gNO were observed as early as 6 hours after treatment (data not shown), and levels of NO continued to increase for at least 24 hours.

[4] = test system: iNOS mRNA in cystic fibrosis (CF) HBE cells; experiment: RT-PCR of iNOS mRNA in CF HBE cultures; format: cell-based, human; conditions: differentiated CF HBE stimulated with IFN-γ, qualitative RT-PCR
[5] = undifferentiated control HBE cultures, IFN-γ treatment

| Compound | inhibition of gNO production ([1]; control HBE cells, preliminary experiment FIG. 4A, after IFN-γ treatment) | level of gNO ([2]; differentiated CF HBE cultures, IFN-γ 100 ng/ml, 19-20 hours) | level of gNO ([2]; differentiated CF cells stimulated with IFN-γ, submerged with 420 μl PBS) | level of gNO ([2]; differentiated CF cells stimulated with IFN-γ, submersion experiments, not submerged) | ratio of gNO, control cells versus CF cells after IFN-γ treatment ([2]; differentiated cultures treated with IFN-γ) [fold] | level of gNO ([2]; undifferentiated CF cells after stimulation with IFN-γ) | level of nitrate/nitrite in the media (HBE cells) [µM] | NO concentration ([1]; 6 hr incubation with 10 μL INF-γ (100 ng/ml) in HBSS medium, FIG. 4B) | gas-phase level of NO ([1]; 6 hours, 50 μL PBS) | gas-phase level of NO ([1]; 6 hours, submerged with 420 μL PBS) | gas-phase level of NO ([1]; 20 hours, 50 μL PBS) | gas-phase level of NO ([1]; 20 hours, submerged with 420 μL PBS) | fold increase of accumulated gNO over baseline ([1]; differentiated control HBE cultures, 100 ng/ml IFN-γ) | level of accumulated gNO ([1]; differentiated control HBE cultures, 100 ng/ml IFN-γ overnight (19-20 hours), 50 μl PBS apical) | fold increase in gNO [1, 5] [fold] | level of gNO [1, 5] | effect on gNO ([1]; undifferentiated cultures, IFN-γ treatment) | levels of nNOS and eNOS ([3]; control HBE treated with IFN-γ, RT-PCR (not shown)) | level of iNOS RNA / iNOS expression ([3]; differentiated control HBE, increasing concentrations of IFN-γ, qualitative RT-PCR) | iNOS expression [4] |
| --- | --- | --- | --- | --- | --- | --- | --- | --- | --- | --- | --- | --- | --- | --- | --- | --- | --- | --- | --- | --- |
| COC(=O)[C@@H](N)CCCNC(=N)N[N+](=O)[O-] [L-NAME, reference compound] | inhibited completely | – | – | – | – | – | – | – | – | – | – | – | – | – | – | – | – | – | – | – |
| interferon gamma [IFN-γ] | – | 192 ppb and 192.3+/−68.9 ppb | 11+/−4.3 ppb | 98+/−35 ppb | 3 | 15.6+/−6.8 ppb | 9.3 ± 3.1 | marked elevation | 379+/−210 ppb | 6.6+/−5.6 ppb | 1642.5+/−31 ppb | 26.5+/−6.4 ppb | > 50 fold and ~50 fold | 576 ppb and 576+/−200 ppb and > 500 ppb | ~2 | 9.5+/−3.3 ppb and ~10 ppb | no significant effect | relatively unchanged | induced iNOS expression; also recorded: clear increase | increase in iNOS expression |
